In experiment [1] the target is Vascular endothelial growth factor receptor 2 (Homo sapiens, UniProt P35968). The experiment can be described thus: Inhibition of KDR.
In experiment [2] the target is Glycogen synthase kinase-3 beta (Homo sapiens, UniProt P49841). Put plainly: Inhibition of GSK3-beta.
Experiment [3] addresses Serine/threonine-protein kinase pim-1 (Homo sapiens, UniProt P11309). Put plainly: Inhibition of Pim1.
In experiment [4] the target is Rho-associated protein kinase 2 (Homo sapiens, UniProt O75116). Put plainly: Inhibition of Rock2.
Chain of Rho-associated protein kinase 2 (O75116 whole entry): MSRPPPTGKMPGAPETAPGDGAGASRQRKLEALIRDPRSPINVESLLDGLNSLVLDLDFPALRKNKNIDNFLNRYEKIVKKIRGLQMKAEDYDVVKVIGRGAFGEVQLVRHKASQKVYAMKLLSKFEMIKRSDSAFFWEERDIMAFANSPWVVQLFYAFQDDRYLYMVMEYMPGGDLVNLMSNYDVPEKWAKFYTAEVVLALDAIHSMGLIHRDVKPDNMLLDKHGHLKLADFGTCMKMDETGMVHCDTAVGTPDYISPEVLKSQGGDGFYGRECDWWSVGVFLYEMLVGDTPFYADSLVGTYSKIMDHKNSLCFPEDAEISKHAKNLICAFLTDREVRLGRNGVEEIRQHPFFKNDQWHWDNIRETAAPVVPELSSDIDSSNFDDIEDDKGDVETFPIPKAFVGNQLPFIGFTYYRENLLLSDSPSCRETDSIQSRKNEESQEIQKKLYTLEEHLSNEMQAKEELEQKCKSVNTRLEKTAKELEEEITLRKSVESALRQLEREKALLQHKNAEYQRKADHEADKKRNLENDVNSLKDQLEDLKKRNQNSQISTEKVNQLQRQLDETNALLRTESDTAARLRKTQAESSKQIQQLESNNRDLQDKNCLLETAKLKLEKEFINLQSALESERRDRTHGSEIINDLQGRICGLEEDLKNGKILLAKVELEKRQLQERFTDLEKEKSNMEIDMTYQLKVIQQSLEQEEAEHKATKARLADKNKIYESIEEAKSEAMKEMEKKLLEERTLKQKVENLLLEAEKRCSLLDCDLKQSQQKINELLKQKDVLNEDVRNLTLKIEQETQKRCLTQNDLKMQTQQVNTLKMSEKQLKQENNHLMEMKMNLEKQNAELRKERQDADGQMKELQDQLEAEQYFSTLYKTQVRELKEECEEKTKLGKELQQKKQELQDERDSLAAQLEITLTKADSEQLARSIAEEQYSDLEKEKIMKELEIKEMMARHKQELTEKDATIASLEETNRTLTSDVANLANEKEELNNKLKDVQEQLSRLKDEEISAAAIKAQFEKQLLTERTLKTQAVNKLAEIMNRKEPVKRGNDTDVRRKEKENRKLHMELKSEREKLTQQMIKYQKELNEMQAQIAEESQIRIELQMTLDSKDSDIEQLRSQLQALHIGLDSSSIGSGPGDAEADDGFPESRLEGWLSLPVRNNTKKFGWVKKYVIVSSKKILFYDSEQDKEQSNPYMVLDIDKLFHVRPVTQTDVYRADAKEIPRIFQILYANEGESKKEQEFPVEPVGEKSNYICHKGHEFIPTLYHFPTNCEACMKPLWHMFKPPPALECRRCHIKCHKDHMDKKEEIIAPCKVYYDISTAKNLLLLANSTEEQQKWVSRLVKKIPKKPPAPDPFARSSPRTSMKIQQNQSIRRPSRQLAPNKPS
Experiment [5] deals with Serine/threonine-protein kinase PAK 4 (Homo sapiens, UniProt O96013). The experiment can be described thus: Inhibition of Pak4.
Chain of Serine/threonine-protein kinase PAK 4 (O96013 whole entry): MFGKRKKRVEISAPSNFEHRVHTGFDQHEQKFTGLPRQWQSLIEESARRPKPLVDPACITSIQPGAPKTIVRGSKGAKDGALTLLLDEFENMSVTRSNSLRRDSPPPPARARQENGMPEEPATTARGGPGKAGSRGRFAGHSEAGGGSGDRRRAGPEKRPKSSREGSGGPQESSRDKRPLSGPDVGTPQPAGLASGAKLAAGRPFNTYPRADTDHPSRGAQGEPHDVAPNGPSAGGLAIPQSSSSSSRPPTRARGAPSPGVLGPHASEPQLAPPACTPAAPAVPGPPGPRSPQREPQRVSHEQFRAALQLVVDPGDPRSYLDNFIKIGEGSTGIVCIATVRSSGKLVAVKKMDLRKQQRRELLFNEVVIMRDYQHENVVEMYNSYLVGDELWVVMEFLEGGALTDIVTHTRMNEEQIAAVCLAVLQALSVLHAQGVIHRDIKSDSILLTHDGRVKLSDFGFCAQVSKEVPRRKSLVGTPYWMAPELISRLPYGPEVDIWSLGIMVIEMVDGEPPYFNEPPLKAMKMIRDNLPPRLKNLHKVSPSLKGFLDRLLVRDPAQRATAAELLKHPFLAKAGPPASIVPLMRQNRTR
The target of experiment [6] is Epidermal growth factor receptor (Homo sapiens, UniProt P00533). The experiment can be described thus: Inhibition of EGFR.
Chain of Epidermal growth factor receptor (P00533 whole entry): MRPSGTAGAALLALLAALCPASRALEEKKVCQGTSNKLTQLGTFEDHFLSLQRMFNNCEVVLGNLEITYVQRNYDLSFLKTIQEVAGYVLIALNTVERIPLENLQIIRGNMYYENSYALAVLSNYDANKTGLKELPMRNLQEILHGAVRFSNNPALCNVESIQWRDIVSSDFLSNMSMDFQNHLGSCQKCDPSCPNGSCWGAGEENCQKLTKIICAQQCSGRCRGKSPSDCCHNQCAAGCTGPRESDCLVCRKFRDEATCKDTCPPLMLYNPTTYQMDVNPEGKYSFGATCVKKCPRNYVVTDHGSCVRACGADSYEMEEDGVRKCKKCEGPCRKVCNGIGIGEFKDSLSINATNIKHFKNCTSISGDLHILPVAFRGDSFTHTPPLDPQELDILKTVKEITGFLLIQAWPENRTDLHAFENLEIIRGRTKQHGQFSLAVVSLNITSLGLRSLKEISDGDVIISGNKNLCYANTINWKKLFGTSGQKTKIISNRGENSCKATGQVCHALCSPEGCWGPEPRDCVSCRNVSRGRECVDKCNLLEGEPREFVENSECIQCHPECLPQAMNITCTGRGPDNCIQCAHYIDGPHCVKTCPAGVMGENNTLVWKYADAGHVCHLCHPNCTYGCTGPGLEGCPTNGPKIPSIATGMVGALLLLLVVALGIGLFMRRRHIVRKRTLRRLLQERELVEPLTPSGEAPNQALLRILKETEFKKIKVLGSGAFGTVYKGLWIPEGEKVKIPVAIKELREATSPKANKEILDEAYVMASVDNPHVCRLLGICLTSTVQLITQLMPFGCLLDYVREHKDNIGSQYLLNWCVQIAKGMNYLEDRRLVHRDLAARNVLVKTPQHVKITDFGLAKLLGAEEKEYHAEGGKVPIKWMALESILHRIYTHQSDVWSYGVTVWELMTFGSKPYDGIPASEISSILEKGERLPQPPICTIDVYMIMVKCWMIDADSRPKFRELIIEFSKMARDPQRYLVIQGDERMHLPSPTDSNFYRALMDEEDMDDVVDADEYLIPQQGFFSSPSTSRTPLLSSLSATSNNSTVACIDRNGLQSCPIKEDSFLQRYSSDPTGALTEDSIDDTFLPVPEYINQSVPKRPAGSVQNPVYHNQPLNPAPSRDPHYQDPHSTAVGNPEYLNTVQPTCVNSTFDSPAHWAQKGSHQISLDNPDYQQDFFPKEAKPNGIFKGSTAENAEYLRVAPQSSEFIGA
In experiment [7] the target is Tyrosine-protein kinase JAK2 (Homo sapiens, UniProt O60674). Put plainly: Inhibition of JAK2.
Chain of Tyrosine-protein kinase JAK2 (O60674 whole entry): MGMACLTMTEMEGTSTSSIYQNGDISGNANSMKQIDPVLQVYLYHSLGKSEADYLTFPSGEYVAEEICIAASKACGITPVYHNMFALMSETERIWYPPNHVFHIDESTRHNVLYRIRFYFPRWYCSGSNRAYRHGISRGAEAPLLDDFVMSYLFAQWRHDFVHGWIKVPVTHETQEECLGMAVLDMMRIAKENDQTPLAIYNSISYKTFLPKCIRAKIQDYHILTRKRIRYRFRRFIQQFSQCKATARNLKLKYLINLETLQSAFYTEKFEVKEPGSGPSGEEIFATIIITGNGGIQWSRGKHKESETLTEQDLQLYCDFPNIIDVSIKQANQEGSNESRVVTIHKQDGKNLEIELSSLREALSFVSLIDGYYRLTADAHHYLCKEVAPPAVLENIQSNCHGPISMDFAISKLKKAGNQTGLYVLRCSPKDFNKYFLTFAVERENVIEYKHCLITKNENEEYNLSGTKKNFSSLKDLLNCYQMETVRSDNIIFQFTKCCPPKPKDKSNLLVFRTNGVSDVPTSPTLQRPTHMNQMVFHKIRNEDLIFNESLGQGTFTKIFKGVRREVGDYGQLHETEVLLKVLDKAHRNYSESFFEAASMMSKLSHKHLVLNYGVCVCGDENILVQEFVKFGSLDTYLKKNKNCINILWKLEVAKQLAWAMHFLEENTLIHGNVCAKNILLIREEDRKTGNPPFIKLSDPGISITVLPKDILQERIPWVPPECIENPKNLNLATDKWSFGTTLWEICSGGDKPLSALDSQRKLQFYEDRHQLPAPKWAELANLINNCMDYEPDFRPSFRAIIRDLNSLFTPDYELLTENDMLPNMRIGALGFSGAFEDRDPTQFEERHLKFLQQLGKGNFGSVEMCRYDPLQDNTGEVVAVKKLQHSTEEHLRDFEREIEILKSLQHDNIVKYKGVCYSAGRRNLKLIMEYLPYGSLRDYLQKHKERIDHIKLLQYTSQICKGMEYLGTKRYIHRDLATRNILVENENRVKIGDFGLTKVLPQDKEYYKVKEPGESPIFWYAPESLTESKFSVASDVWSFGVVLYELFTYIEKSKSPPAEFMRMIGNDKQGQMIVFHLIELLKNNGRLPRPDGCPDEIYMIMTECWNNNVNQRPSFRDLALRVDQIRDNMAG

Chain of Serine/threonine-protein kinase pim-1 (P11309 whole entry): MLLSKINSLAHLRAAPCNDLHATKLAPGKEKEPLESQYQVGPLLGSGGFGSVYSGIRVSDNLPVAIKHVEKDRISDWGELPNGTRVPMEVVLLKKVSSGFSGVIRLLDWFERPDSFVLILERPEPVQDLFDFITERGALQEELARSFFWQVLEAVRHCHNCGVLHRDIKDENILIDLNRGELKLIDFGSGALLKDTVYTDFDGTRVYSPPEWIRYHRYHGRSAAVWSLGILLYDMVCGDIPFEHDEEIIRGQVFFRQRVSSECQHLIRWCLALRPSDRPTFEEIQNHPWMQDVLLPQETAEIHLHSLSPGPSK
Chain of Glycogen synthase kinase-3 beta (P49841 whole entry): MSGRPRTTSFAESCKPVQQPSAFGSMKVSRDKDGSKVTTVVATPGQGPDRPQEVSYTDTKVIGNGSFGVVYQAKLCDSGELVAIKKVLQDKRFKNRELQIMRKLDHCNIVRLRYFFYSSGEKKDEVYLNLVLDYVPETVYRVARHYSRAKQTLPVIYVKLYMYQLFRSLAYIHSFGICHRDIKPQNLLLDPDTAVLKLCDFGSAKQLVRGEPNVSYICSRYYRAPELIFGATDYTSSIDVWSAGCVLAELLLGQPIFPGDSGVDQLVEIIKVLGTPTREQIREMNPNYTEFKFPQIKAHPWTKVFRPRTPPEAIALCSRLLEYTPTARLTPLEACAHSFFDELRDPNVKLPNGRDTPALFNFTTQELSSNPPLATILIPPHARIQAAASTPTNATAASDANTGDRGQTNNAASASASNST

The term Ki denotes the equilibrium dissociation constant of an inhibitor or competing ligand from its target. Low readings indicate higher affinity, high ones lower affinity. Take `c1ccc(-c2c(-c3ccc4[nH]ncc4c3)nc3ncccn23)cc1`: the Ki in experiment [1] is > 8.88 µM; in experiment [2], 0.01 µM; in experiment [3], 0.339 µM; in experiment [4], 0.006 µM; in experiment [5], > 3.75 µM.
Regarding `Cc1nc(-c2ccc3[nH]ncc3c2)cs1`, the inhibitory constant (Ki) in experiment [1] is > 8.88 µM; in experiment [2] it was 2.86 µM; in experiment [3], 4.16 µM; in experiment [4], 0.513 µM; in experiment [5], > 3.75 µM.
The matching figures for `Nc1nc(-c2ccc3[nH]ncc3c2)cs1`: > 8.88 µM, 4.47 µM, 2.9 µM, 0.909 µM and > 3.75 µM.
The matching figures for `CCNc1nc(-c2ccc3[nH]ncc3c2)cs1`: > 8.88 µM, 3.93 µM, 1.95 µM, 0.888 µM and > 3.75 µM.
For `c1ccc(CCNc2nc(-c3ccc4[nH]ncc4c3)cs2)cc1`, the Ki is > 8.88 µM in experiment [1]; > 5.45 µM in experiment [2]; > 8.75 µM in experiment [3]; 0.364 µM in experiment [4]; > 3.75 µM in experiment [5].
The matching figures for `c1ccc(Nc2nc(-c3ccc4[nH]ncc4c3)c(-c3ccccc3)s2)cc1`: > 8.88 µM, > 5.45 µM, > 8.75 µM, 1.41 µM and > 3.75 µM.
The matching figures for `c1ccc(CNc2nc(-c3ccc4[nH]ncc4c3)c(-c3ccccc3)s2)cc1`: > 8.88 µM, 3.4 µM, > 8.75 µM, 0.822 µM and > 3.75 µM.
In the case of `c1ccn2c(NC3CCCCC3)c(-c3ccc4[nH]ncc4c3)nc2c1`, the inhibitory constant (Ki) in experiment [2] worked out at 2.61 µM; in experiment [3], 2.31 µM; in experiment [4], 2.48 µM.
In experiment [3], `c1cn2c(NC3CCCCC3)c(-c3ccc4[nH]ncc4c3)nc2cn1` came in with a Ki of 1.85 µM.
For `CCCCNc1c(-c2ccc3[nH]ncc3c2)nc2ncccn12`, the Ki in experiment [1] was > 8.88 µM; in experiment [2], 0.019 µM; in experiment [3], 0.114 µM; in experiment [4], 0.116 µM; in experiment [5], > 3.75 µM.
For `Clc1ccc(Nc2c(-c3ccc4[nH]ncc4c3)nc3ncccn23)cc1` the same measures were > 8.88 µM, 0.121 µM, > 8.75 µM, 1.56 µM and > 3.75 µM.
Regarding `c1cn2c(NC3CCCCC3)c(-c3ccc4[nH]ncc4c3)nc2s1`, the inhibition constant Ki in experiment [1] came out at 5.34 µM; in experiment [2] it was 0.642 µM; in experiment [3], 1.29 µM; in experiment [4] it was 0.622 µM.
Regarding `CN(C)CCn1cnc(-c2ccc(F)cc2)c1-c1ccc2[nH]ncc2c1`, the inhibitory constant (Ki) is > 8.88 µM in experiment [1]; > 5.45 µM in experiment [2]; > 8.75 µM in experiment [3]; 0.067 µM in experiment [6]; > 6 µM in experiment [4]; > 3.75 µM in experiment [5]. The Ki in experiment [7] is > 1.45 µM.
In the case of `Fc1ccc(-c2ncn(CCCN3CCOCC3)c2-c2ccc3[nH]ncc3c2)cc1`, the Ki in experiment [1] is > 8.88 µM; in experiment [2] it was > 5.45 µM; in experiment [3], > 8.75 µM; in experiment [6], 0.027 µM; in experiment [4], > 6 µM; in experiment [5] it was > 3.75 µM. Besides, the Ki in experiment [7] is > 1.45 µM.
In the case of `Fc1ccc(-c2ncn(C3CCN(Cc4ccccc4)C3)c2-c2ccc3[nH]ncc3c2)cc1` (centres undefined), the Ki in experiment [1] is > 8.88 µM; in experiment [2] it was > 5.45 µM; in experiment [3], > 8.75 µM; in experiment [6] it was 0.008 µM; in experiment [4] it was > 6 µM; in experiment [5], > 3.75 µM. In addition, the Ki in experiment [7] was > 1.45 µM.

The values above are taken from ChEMBL document CHEMBL1681650, “Scaffold oriented synthesis. Part 4: design, synthesis and biological evaluation of novel 5-substituted indazoles as potent and selective kinase inhibitors employing heterocycle forming and multicomponent reactions” (Bioorg Med Chem Lett, 2011).
